This is an account of results in US9907791B2, “Ron inhibitors for use in preventing and treating bone loss” (UNIVERSITY OF UTAH RESEARCH FOUNDATION, priority 2014, dated 2018).

Assay [1] is described as follows: Human plasma CTX levels, Phase I patients. It counts as in vivo. From the text: All samples were de-identified and the experiments were approved by the University of Utah Institutional Review Board. Plasma samples were submitted to ARUP for clinical testing of CTX. For BSAP, the Human Bone Panel I capture plate with the Human Alkaline Phosphatase detection kit was utilized (Meso Scale Discovery, Rockville, Md.; […]-2) to measure BSAP levels in undiluted plasma samples per the manufacturer's protocol. ASLAN002 is currently in Phase I testing as an anti-cancer agent (NCT01721148). Regardless of cancer diagnosis, and even in the absence of bone metastasis, RON inhibition might affect normal bone turnover, especially in postmenopausal women due to their high rate of bone loss. Plasma samples from early cohorts of Phase I patients were examined for evidence of bone turnover at baseline and after treatment with ASLAN002, using a standard clinical test to detect cleaved bone-derived collagen in plasma (beta-cross-linked C-telopeptide, or CTX). […] Shown in FIG. 15A is quantification of the percent change in plasma CTX levels (compared to baseline prior to drug treatment) in blood plasma of patients receiving ASLAN002 in the Phase I clinical trial. Most patients received ASLAN002 for 28 days; the exceptions in duration are noted (*15 days and ^84 days). Dark bars represent males, and light bars represent females. […] In this analysis, all subjects except one were >50 years old; women older than 50 were expected to have the greatest amount of physiologic bone turnover due to menopause. None of the patients analyzed were treated concurrently with anti-osteoporotic agents. […] Shown in FIG. 15B is quantification of the percent change in BSAP levels (compared to baseline) in blood plasma of patients receiving ASLAN002. The patients are the same as those shown in FIG. 15A, except those receiving only 15 days of ASLAN002 were not tested for BSAP. Dark bars represent males, and light bars represent females. Note that these patients were not selected based on a diagnosis of bone metastasis; rather, markers of bone turnover in patients with various cancer diagnoses who participated in the Phase I trial of ASLAN002 were simply assessed.

The next assay concerns PyMT-MSP tumor cells. Description: Intratibial PyMT-MSP tumor-induced osteolysis. It is filed as in vivo, mice. From the text: All procedures involving mice and experimental protocols were approved by the Institutional Animal Care and Use Committee (IACUC) of the University of Utah. The RonTK−/− mice which reside on the FVB background, were crossed with NOD.SCID mice for an immune-compromised mouse model. As a control, wild-type FVB mice were also crossed with NOD.SCID mice. The STK−/− mice, which are on a C57BL/6 background, were compared to wild-type C57BL/6 mice as controls. Mice for all experiments were 6 to 8 weeks of age. For intratibial injections, 1×10^5 (PyMTor DU4475) or 3×10^5 (MDA-MB-231) tumor cells were resuspended in 10 μL matrigel and injected into the right tibia of anesthetized female FVB (PyMT) or NOD.SCID mice carrying various alleles of RON. Osteolysis was assessed by X-ray radiography. Dissected hindlimbs from mice sacrificed at the final time point in each experiment were placed in the Kodak In-vivo Multispectral Imaging System FX and exposed to X-ray radiography at 35 kV for 100 sec. Excess tumor tissue was removed from the bones prior to X-ray. Osteolytic lesions were quantified using Image J software (NCBI). All images were compared to the contralateral leg as an internal control.
Hindlimb bones were excised from mice at the time of sacrifice and bones were fixed in 10% neutral-buffered formalin, decalcified in Formical-2000 (Decal Corporation, Tallman, N.Y.) for 8 days and embedded in paraffin for hematoxylin and eosin (H & E) or immunohistochemical staining. Osteoclast number was assessed as TRAP^+ multinucleated cells containing 4 or more nuclei and reported as TRAP^+ cells per field. Three sections per mouse and 5 fields per section were used for quantification with fields representing the entire length of the tibia. Tumor proliferation rate was reported as the number of cells which were positive for phospho-H3 staining compared to the number of unstained cells per field expressed as a percent. Three sections per mouse and 5 fields per section were used for quantification with analysis being restricted to within the bone marrow cavity. Immunohistochemical analysis was performed with heat-induced antigen retrieval in sodium-citrate buffer (Dako, Denmark). Primary antibodies used were anti-TRAP at 1:50 (Santa Cruz, sc-30833, Dallas, Tex.), anti-Ki67 at 1:100 (Santa Cruz, sc-12202S, Dallas, Tex.), anti-phosphoH3 at 1:100 (Cell Signaling, #9701, Beverly, Mass.), anti-NFATc1 at 1:50 (Santa Cruz, sc-13033, Dallas, Tex.), and anti-RON at 1:250 (Santa Cruz, sc-322, Dallas, Tex.). Bones from mice lacking RON were used as a negative control. Biotinylated secondary antibody was used with the EnVision^+ system HRP kit (Dako, Denmark) and nuclei counterstained with hematoxylin.
For in vivo experiments, the OSI-296 inhibitor was dissolved in 40% Trappsol with 0.01 M HCl, and mice were treated at a concentration of 200 mg/kg daily by oral gavage. Treatment began either 3 days after tumor cell injection for prophylactic experiments, or 3 weeks after tumor cell injection for therapeutic experiments. ASLAN002 was dissolved in 70% PEG400 with 1×PBS and mice were treated at a concentration of 50 mg/kg daily by oral gavage. muRANK-Fc was given at a concentration of 10 mg/kg every three days by intra-peritoneal injection. For the osteoporosis study, mice were treated beginning on the day after ovary removal. The treatment regimen for OSI-296 was 200 mg/kg every other day by oral gavage. ASLAN002 was administered at 50 mg/kg every other day by oral gavage. Treatment continued until the time of sacrifice at 28 days.

Turning to `CCOc1ccn(-c2ccc(F)cc2)c(=O)c1C(=O)Nc1ccc(Oc2ccnc(N)c2Cl)c(F)c1` [ASLAN002], the “women showing ≧25% decreases in CTX” value in assay [1] (7/10 women) worked out at 70%. The “patients exhibiting decreased CTX levels” value in assay [1] (11/18 Phase I patients, most 28 days of treatment) came out at 61%. In assay [1] (number of men out of all men), the “men showing ≧25% decreases in CTX” value is 0/8. Further, in assay [1] (of the patients with decreased CTX, Mayo clinic response guideline), the “patients with decreased CTX that had ≧25% reduction” value turned out to be 64%. Besides, the inhibition of osteolysis in the assay with PyMT-MSP tumor cells (PyMT-MSP tumors, treatment beginning three days after tumor injection, average) was 6-10 fold. Further, the “PyMT-MSP tumor growth in the bone” value in the assay on PyMT-MSP tumor cells (caliper measurements) is listed as “trend in decreased growth, but did not reach statistical significance”.
